This is an account of results in patent US12486267B2, “Imidazo[1,2-A]pyridine and [1,2,4]triazolo[1,5-A]pyridine derivatives as TLR9 inhibitors for the treatment of fibrosis” (BRISTOL-MYERS SQUIBB COMPANY, priority 2020, dated 2025).

Format in all cases: cell-based
In one experiment the target is T1, human TLR8 (Homo sapiens, UniProt Q9NR97).
T1 sequence (Q9NR97 27-1041): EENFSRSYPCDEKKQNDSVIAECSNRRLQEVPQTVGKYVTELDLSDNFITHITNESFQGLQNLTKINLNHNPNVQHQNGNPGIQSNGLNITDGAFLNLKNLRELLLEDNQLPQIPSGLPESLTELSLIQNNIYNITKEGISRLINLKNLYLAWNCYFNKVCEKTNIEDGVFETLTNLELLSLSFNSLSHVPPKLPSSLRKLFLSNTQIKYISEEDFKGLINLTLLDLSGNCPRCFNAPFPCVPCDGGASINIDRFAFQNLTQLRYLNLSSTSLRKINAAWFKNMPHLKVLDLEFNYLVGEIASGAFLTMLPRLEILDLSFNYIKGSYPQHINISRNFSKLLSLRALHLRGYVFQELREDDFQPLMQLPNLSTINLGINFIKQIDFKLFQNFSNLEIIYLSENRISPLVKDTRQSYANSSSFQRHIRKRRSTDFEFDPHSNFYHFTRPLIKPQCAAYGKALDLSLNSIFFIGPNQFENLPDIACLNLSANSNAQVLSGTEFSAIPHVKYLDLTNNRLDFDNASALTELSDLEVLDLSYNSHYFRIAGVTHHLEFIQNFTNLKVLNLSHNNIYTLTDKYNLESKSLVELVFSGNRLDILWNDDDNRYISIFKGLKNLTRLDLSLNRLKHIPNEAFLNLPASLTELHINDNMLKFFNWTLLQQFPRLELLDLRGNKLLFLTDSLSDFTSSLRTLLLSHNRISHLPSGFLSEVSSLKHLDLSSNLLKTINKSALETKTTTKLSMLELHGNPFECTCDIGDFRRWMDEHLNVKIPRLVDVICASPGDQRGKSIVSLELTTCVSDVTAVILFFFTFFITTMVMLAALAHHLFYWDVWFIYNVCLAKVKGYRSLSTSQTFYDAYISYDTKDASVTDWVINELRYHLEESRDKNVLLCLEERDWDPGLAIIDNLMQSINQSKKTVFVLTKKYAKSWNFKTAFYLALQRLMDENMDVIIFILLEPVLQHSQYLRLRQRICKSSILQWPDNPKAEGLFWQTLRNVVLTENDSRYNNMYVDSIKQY
Briefly: TLR8 inhibition reporter assay (HEK-Blue cells, SEAP reporter). Conditions: HEK-Blue cells overexpressing human TLR8; stimulated with R848 15.9 μM; 22 hour incubation; SEAP readout. An outline of the steps:
(§1)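 HEK-Blue cells with an NF-κB/AP-1-driven SEAP reporter were pre-treated 30 min at room temperature with compound (0.05 nM–50 μM), then stimulated with gardiquimod 7.5 μM (TLR7), R848 15.9 μM (TLR8) or ODN2006 5 nM (TLR9). After 22 h at 37 °C, SEAP was read; % inhibition was referenced to agonist+DMSO and known-inhibitor wells.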

The target of a further experiment is T2, human TLR7 (Homo sapiens, UniProt Q9NYK1).
T2 sequence (Q9NYK1 27-1049): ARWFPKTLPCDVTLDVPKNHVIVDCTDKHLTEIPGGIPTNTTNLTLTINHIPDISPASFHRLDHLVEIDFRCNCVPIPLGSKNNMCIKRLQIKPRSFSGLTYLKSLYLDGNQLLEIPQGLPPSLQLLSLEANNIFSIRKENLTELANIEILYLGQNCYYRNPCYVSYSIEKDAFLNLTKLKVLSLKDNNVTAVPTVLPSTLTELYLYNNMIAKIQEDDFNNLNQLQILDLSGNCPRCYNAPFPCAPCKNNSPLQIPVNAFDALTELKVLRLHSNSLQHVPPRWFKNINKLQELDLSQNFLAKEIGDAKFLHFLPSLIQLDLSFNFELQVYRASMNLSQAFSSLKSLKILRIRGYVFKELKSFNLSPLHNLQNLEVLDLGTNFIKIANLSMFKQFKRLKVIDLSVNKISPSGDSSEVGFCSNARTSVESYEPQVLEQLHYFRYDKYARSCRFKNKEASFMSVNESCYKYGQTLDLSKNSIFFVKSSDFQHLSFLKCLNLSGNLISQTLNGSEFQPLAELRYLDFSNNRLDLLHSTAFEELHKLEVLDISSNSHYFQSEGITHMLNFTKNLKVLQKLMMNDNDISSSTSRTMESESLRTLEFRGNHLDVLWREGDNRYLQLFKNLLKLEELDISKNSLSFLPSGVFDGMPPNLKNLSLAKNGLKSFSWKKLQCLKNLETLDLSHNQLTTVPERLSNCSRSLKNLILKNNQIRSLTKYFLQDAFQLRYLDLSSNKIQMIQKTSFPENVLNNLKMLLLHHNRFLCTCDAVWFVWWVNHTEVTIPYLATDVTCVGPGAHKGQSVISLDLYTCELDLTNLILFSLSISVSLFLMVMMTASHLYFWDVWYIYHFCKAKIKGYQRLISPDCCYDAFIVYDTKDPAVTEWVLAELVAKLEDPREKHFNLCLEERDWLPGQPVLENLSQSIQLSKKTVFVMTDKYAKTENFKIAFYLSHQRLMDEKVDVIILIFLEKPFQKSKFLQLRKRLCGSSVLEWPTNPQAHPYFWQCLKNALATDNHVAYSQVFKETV
The experiment in a line: TLR7 inhibition reporter assay (HEK-Blue cells, SEAP reporter). Particulars: HEK-Blue cells overexpressing human TLR7; stimulated with gardiquimod 7.5 μM; 22 hour incubation; SEAP readout. An outline of the steps: as §1

Another experiment concerns the target T3, human TLR9 (Homo sapiens, UniProt Q9NR96).
T3 sequence (Q9NR96 26-1032): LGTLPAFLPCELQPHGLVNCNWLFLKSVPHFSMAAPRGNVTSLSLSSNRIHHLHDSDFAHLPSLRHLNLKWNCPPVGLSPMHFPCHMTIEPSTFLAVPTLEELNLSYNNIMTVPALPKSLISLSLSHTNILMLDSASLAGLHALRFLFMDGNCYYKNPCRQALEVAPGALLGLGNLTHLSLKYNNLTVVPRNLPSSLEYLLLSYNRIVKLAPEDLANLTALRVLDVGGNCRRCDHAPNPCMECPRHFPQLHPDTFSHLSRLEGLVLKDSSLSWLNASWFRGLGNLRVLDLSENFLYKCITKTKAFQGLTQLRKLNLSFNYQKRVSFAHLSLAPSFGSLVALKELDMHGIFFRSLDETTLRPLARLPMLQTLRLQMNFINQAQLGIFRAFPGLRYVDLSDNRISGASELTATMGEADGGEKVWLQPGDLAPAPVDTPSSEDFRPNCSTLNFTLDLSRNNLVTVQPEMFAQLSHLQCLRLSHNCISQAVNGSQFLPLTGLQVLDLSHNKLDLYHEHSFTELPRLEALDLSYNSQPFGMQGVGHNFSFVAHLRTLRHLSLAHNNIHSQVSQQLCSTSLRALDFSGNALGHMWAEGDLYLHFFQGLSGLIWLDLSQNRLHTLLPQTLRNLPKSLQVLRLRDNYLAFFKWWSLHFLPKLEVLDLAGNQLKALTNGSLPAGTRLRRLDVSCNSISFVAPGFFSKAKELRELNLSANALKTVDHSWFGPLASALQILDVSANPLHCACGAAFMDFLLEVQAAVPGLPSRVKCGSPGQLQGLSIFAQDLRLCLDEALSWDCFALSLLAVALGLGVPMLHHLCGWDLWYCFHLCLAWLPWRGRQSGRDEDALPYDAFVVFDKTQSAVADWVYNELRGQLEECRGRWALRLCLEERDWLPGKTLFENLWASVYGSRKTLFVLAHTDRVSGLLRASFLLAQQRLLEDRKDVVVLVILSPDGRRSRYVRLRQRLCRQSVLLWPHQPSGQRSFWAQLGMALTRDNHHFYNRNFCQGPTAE
The experiment in a line: TLR9 inhibition reporter assay (HEK-Blue cells, SEAP reporter). Particulars: HEK-Blue cells overexpressing human TLR9; stimulated with ODN2006 5 nM; 22 hour incubation; SEAP readout. A digest of the protocol:
as §1

For `CC(C)CN1C2CCC1CC(N1CCC(c3cc(F)c4nc(-c5ccc(S(C)(=O)=O)cc5)cn4c3)CC1)C2` (single isomer, unassigned) [Example 114, 8-fluoro-6-(1-(8-isobutyl-8-azabicyclo[3.2.1]octan-3-yl)piperidin-4-yl)-2-(4-(methylsulfonyl)phenyl)imidazo[1,2-a]pyridine], the IC50 was 17 µM against human TLR8, 2 µM on human TLR7 and 0.066 µM against human TLR9.

In the case of `COc1ccc(-c2cn3c(n2)CCC(C2CCN(C4CCN(C(C)C)CC4)CC2)C3)cc1OC` (single isomer, unassigned) [Example 36, 2-(3,4-dimethoxyphenyl)-6-(1′-isopropyl-[1,4′-bipiperidin]-4-yl)-5,6,7,8-tetrahydroimidazo[1,2-a]pyridine], the 50% inhibitory concentration (IC50) is > 50 µM against human TLR8, 7.8 µM at human TLR7 and 0.057 µM on human TLR9.

For the compound `COc1ccc(-c2cn3cc(C4CCN(C5CCN(CC(C)C)CC5)CC4)ccc3n2)cc1OC` [Example 12, 2-(3,4-dimethoxyphenyl)-6-(1′-isobutyl-[1,4′-bipiperidin]-4-yl)imidazo[1,2-a]pyridine], the values for the half-maximal inhibitory concentration (IC50) on human TLR8, against human TLR7 and against human TLR9 were > 50 µM, 2.7 µM and 0.122 µM, respectively.

For the compound `COc1ccc(-c2nc3n(n2)CC(c2ccc(N4CC5CCC(C4)N5C(C)C)cc2)CC3C)cc1OC` (stereo not drawn) [Example 152, 2-(3,4-dimethoxyphenyl)-6-(4-(8-isopropyl-3,8-diazabicyclo[3.2.1]octan-3-yl)phenyl)-8-methyl-5,6,7,8-tetrahydro-[1,2,4]triazolo[1,5-a]pyridine], the values for the IC50 on human TLR8, at human TLR7 and at human TLR9 were > 50 µM, > 50 µM and 0.357 µM, respectively.

In the case of `CS(=O)(=O)c1ccc(-c2cn3c(n2)CC[C@H](C2CCN(C4CC5CCC(C4)N5CC4CC4)CC2)C3)cc1` (single isomer, unassigned) [Example 138], the values for the half-inhibitory concentration (IC50) at human TLR8, against human TLR7 and at human TLR9 were > 50 µM, > 50 µM and 0.381 µM, respectively.

Regarding `COc1ccc(-c2cn3c(n2)CCC(C2CCN(C4CCN(C5CC5)CC4)CC2)C3)cc1OC` (single isomer, unassigned) [Example 38, 6-(1′-cyclopropyl-[1,4′-bipiperidin]-4-yl)-2-(3,4-dimethoxyphenyl)-5,6,7,8-tetrahydroimidazo[1,2-a]pyridine], the IC50 at human TLR8 is > 50 µM; against human TLR7, 6 µM; on human TLR9, 0.045 µM.

Turning to `CS(=O)(=O)c1ccc(-c2cn3cc(C4CCN(C5CCN(C6COC6)CC5)CC4)cc(F)c3n2)cc1` [Example 111, 8-fluoro-2-(4-(methylsulfonyl)phenyl)-6-(1′-(oxetan-3-yl)-[1,4′-bipiperidin]-4-yl)imidazo[1,2-a]pyridine], the results for the IC50 against human TLR8, against human TLR7 and against human TLR9 were > 50 µM, 13 µM and 0.235 µM, respectively.

For the compound `COc1ccc(-c2cn3cc(C4CCN(C5CC6CCC(C5)N6CC(C)C)CC4)cc(C)c3n2)cc1OC` (single isomer, unassigned) [Example 18, 2-(3,4-dimethoxyphenyl)-6-(1-(8-isobutyl-8-azabicyclo[3.2.1]octan-3-yl)piperidin-4-yl)-8-methylimidazo[1,2-a]pyridine], the concentration for half-maximal inhibition (IC50) was > 50 µM against human TLR8, 3.3 µM at human TLR7 and 0.048 µM on human TLR9.

Turning to `COc1ccc(-c2cn3c(n2)CCC(C2CCN(C4CCN(C(=O)C(C)C)CC4)CC2)C3)cc1OC` (racemic) [Example 39, 1-(4-(2-(3,4-dimethoxyphenyl)-5,6,7,8-tetrahydroimidazo[1,2-a]pyridin-6-yl)-[1,4′-bipiperidin]-1′-yl)-2-methylpropan-1-one], the IC50 was > 50 µM at human TLR8, 43 µM against human TLR7 and 0.141 µM on human TLR9.

In the case of `COc1ccc(-c2cn3cc(C4CCN(C5CC6(C5)CN(CC5CC5)C6)CC4)cc(C)c3n2)cc1OC` [Example 16, 6-(1-(2-(cyclopropylmethyl)-2-azaspiro[3.3]heptan-6-yl)piperidin-4-yl)-2-(3,4-dimethoxyphenyl)-8-methylimidazo[1,2-a]pyridine], the results for the IC50 on human TLR8, at human TLR7 and against human TLR9 were > 50 µM, 2 µM and 0.014 µM, respectively.

Consider `COc1ccc(-c2cn3c(n2)CCC(C2CCN(C4CC5(C4)CN(CC4CC4)C5)CC2)C3)cc1OC` (racemic) [Example 51, 6-(1-(2-(cyclopropylmethyl)-2-azaspiro[3.3]heptan-6-yl)piperidin-4-yl)-2-(3,4-dimethoxyphenyl)-5,6,7,8-tetrahydroimidazo[1,2-a]pyridine], for which the IC50 at human TLR8 was > 50 µM; at human TLR7, > 50 µM; at human TLR9, 0.068 µM.

For `COc1ccc(-c2cn3cc(C4CC5CCC(C4)N5C4CCN(C5CC5)CC4)cc(C)c3n2)cc1OC` (single isomer, unassigned) [Example 25, 6-(8-(1-cyclopropylpiperidin-4-yl)-8-azabicyclo[3.2.1]octan-3-yl)-2-(3,4-dimethoxyphenyl)-8-methylimidazo[1,2-a]pyridine], the IC50 against human TLR8 was 20 µM; at human TLR7 it was 3.5 µM; at human TLR9, 0.016 µM.
